The supplement of paper PMC9663587

Tests used:
Assay in all cases: GRmax, 72 h; higher = less effect;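 note: breast cell lines in 384-well plates, nine doses across a 10^4 range, Dye Drop imaging of viable cells vs DMSO and time-zero plates, GR 0 means no net growth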
184A1 = system: 184A1
BT20 = system: BT20
HCC1569 = system: HCC1569
HCC202 = system: HCC202
MCF7 = system: MCF7
MDAMB175VII = system: MDAMB175VII
MDAMB361 = system: MDAMB361
PDX1328 = system: PDX1328
SUM149 = system: SUM149
SUM185PE = system: SUM185PE
SUM190PT = system: SUM190PT
SUM229PE = system: SUM229PE
SUM44PE = system: SUM44PE
UACC893 = system: UACC893
ZR751 = system: ZR751

Structure (SMILES)	GRmax, 72 h (184A1) [GR]	GRmax, 72 h (BT20) [GR]	GRmax, 72 h (HCC1569) [GR]	GRmax, 72 h (HCC202) [GR]	GRmax, 72 h (MCF7) [GR]	GRmax, 72 h (MDAMB175VII) [GR]	GRmax, 72 h (MDAMB361) [GR]	GRmax, 72 h (PDX1328) [GR]	GRmax, 72 h (SUM149) [GR]	GRmax, 72 h (SUM185PE) [GR]	GRmax, 72 h (SUM190PT) [GR]	GRmax, 72 h (SUM229PE) [GR]	GRmax, 72 h (SUM44PE) [GR]	GRmax, 72 h (UACC893) [GR]	GRmax, 72 h (ZR751) [GR]
COc1cc2c(Oc3ccc4[nH]c(C)cc4c3F)ncnc2cc1OCCCN1CCCC1 [Cediranib/AZD2171] (max 10 µM)	0.167	0.221	0.875	0.364	0.115	-0.648	-0.98	-0.544	0.0682	0.0765	0.893	0.18	0.417	-0.458	0.672
CCc1cnn2c(NCc3ccc[n+]([O-])c3)cc(N3CCCC[C@H]3CCO)nc12 (max 1 µM)	-0.33	-0.698	-0.245	0.0907	-0.249	-0.493	-0.275	-0.577	-0.566	0.18	-0.659	-0.21	-0.925	-0.641	-0.406
COc1cccc(OCCCN)c1-c1cc(Nc2cnc(C#N)cn2)n[nH]1	0.529	-0.2	-0.0272	0.0486	0.211	0.0945	-0.386	0.111	-0.453	0.559	-0.101	-0.112	-0.79	0.365	0.384
CC(C)n1nc(-c2ccc3oc(N)nc3c2)c2c(N)ncnc21 [INK128/MLN0128] (max 3.162 µM)	0.139	-0.0045	0.088	-0.01	-0.045	-0.886	-0.846	-0.159	0.268	0.139	-0.425	0.219	-0.523	-0.483	-0.0856
Nc1cc(C(F)(F)F)c(-c2cc(N3CCOCC3)nc(N3CCOCC3)n2)cn1 [Buparlisib/NVP-BKM120] (max 10 µM)	-0.0111	-0.551	-0.163	-0.0463	-0.269	-0.976	-0.958	-0.351	-0.331	0.0382	-0.342	-0.285	-0.611	-0.833	-0.226
COc1cc2nccc(Oc3ccc(NC(=O)C4(C(=O)Nc5ccc(F)cc5)CC4)cc3)c2cc1OC [Cabozantinib] (max 10 µM)	0.121	-0.203	0.723	0.731	-0.0993	0.0863	0.662	0.251	0.3	0.0169	-0.0122	0.199	0.288	0.735	1.06
Cc1cc(C(C)Nc2ccccc2)c2nc(N3CCOCC3)cc(=O)n2c1 (stereo not given) [TGX221] (max 10 µM)	1	1.02	0.774	0.782	0.789	0.886	0.799	0.778	1.02	0.509	0.989	0.994	1.04	0.939	0.239
CN(C)C/C=C/C(=O)Nc1ccc(C(=O)N2CCC[C@@H](Nc3ncc(Cl)c(-c4c[nH]c5ccccc45)n3)C2)cc1 [THZ531] (max 1 µM)	-0.377	0.637	-0.155	0.0684	-0.367	-0.662	-0.743	-0.184	-0.509	-0.175	-0.725	-0.146	-0.203	-0.417	-0.242
CCC(=O)Nc1ccc(C(=O)Nc2ccc(Nc3ncc4c(n3)N(C)c3ccc(C)cc3C(=O)N4C)cc2)cc1 [FMF-03-145-1]	-0.0063	-0.201	-0.125	0.23	0.0265	0.0817	0.286	0.128	-0.101	0.205	0.0989	-0.209	-0.0614	0.127	0.153
CN(C)C/C=C/C(=O)Nc1ccc(O[C@@H]2CCC[C@@H](Nc3ncc(Cl)c(-c4c[nH]c5ccccc45)n3)C2)cc1 [BSJ-01-175] (max 10 µM)	-0.452	-0.669	-0.762	-0.201	-0.627	-0.798	-0.804	-0.254	-0.617	-0.47	-0.545	-0.77	-0.873	-0.904	-0.346
CN1CCN(C(=O)c2ccc3cc(CCNc4ncnc5ccc(C#N)cc45)ccc3c2)CC1 [senexin b] (max 10 µM)	0.809	0.175	0.514	0.705	0.474	0.205	0.271	1.02	0.747	0.444	0.248	0.696	0.309	0.71	0.845
CC(=O)Nc1cccc(-n2c(=O)n(C3CC3)c(=O)c3c(Nc4ccc(I)cc4F)n(C)c(=O)c(C)c32)c1 (max 1 µM)	0.187	0.503	0.522	0.526	0.558	-0.698	0.502	0.661	0.237	0.904	0.744	0.172	0.56	-0.0662	0.266
CN(C)C/C=C/C(=O)Nc1ccc(C(=O)Nc2cccc(Nc3ncc(Cl)c(-c4c[nH]c5ccccc45)n3)c2)cc1 [THZ1] (max 1 µM)	-0.232	-0.385	-0.325	-0.0084	-0.469	-0.438	-0.72	-0.171	-0.52	-0.219	-0.467	-0.297	-0.292	-0.525	-0.163
CCNC(=O)c1noc(-c2cc(C(C)C)c(O)cc2O)c1-c1ccc(CN2CCOCC2)cc1 [Luminespib/NVP-AUY922] (max 1 µM)	0.0336	-0.049	-0.0081	0.115	0.0015	-0.455	-0.885	-0.253	-0.392	-0.103	-0.433	-0.293	-0.483	-0.898	0.0576
C[C@@H]1COCCN1c1cc(C2([S@](C)(=N)=O)CC2)nc(-c2cc[nH]c3nccc2-3)n1 [AZD6738] (max 10 µM)	0.518	0.187	-0.0623	0.383	0.0472	0.149	-0.166	0.299	-0.297	0.687	-0.036	-0.0688	-0.206	0.429	0.598
C=CC(=O)Nc1ccc(C(=O)Nc2[nH]nc3c2CN(C(=O)N[C@H](CN(C)C)c2ccccc2)C3(C)C)cc1 [YKL-5-124] (max 10 µM)	-0.0615	-0.153	-0.164	-0.178	-0.268	-0.771	-0.835	0.177	-0.104	-0.0052	-0.39	-0.0428	-0.448	-0.626	0.13
CCCCOc1c(C(=O)c2c(F)cc(C)cc2F)c[nH]c2nncc1-2 (max 10 µM)	-0.0413	-0.105	0.0899	0.384	0.072	-0.0619	0.216	0.773	0.0975	0.905	-0.0112	0.0454	-0.234	0.117	0.451
CC(=O)O[C@H]1C(=O)[C@@]2(C)[C@H]([C@H](OC(=O)c3ccccc3)[C@]3(O)C[C@H](OC(=O)[C@H](O)[C@@H](NC(=O)c4ccccc4)c4ccccc4)C(C)=C1C3(C)C)[C@]1(OC(C)=O)CO[C@@H]1C[C@@H]2O [Paclitaxel] (max 1 µM)	-0.268	-0.576	0.0183	0.0855	-0.106	-0.469	-0.609	-0.403	-0.257	0.298	-0.283	-0.377	-0.474	-0.384	-0.0835
CCN1CCN(Cc2ccc(Nc3ncc(F)c(-c4cc(F)c5nc(C)n(C(C)C)c5c4)n3)nc2)CC1 (max 10 µM)	-0.105	-0.216	0.116	0.3	-0.268	-0.192	-0.342	-0.65	0.0962	0.486	-0.582	0.146	-0.763	-0.22	0.311
CN(C)C(=O)c1cc2cnc(Nc3ccc(N4CCNCC4)cn3)nc2n1C1CCCC1 [LEE011/Ribociclib] (max 10 µM)	0.11	0.092	0.897	0.778	0.31	0.159	0.0436	0.265	0.605	0.824	0.199	0.576	0.378	0.469	0.381
Cc1nc(Nc2ncc(C(=O)Nc3c(C)cccc3Cl)s2)cc(N2CCN(CCO)CC2)n1 [Dasatinib] (max 10 µM)	0.192	0.283	-0.059	-0.197	0.157	-0.714	0.0805	-0.401	-0.172	0.388	0.423	-0.112	0.47	0.706	-0.213
CO[C@@H](C)Cn1c(=O)n(C)c2cnc3ccc(-c4cncc(C(C)(C)O)c4)cc3c21 (max 10 µM)	0.0943	-0.645	-0.0783	-0.0355	-0.248	-0.938	-0.988	0.0061	-0.0342	-0.0606	-0.5	0.0211	-0.855	-0.84	-0.117
